Assay results reported in PubChem BioAssay (NCI).
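A five-concentration, 48-hour dose response in 96-well plates underlies each endpoint, interpolated linearly between surrounding concentrations. TGI: total growth inhibition.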

How the values were obtained:
Assay in all cases: NCI-60 cell line screen, 48 h
786-0 renal = test system: 786-0 renal
A549 NSCLC = test system: A549 NSCLC
ACHN renal = test system: ACHN renal
BT-549 breast = test system: BT-549 breast
CCRF-CEM leukemia = test system: CCRF-CEM leukemia
COLO 205 colon = test system: COLO 205 colon
DU-145 prostate = test system: DU-145 prostate
EKVX NSCLC = test system: EKVX NSCLC
HCC-2998 colon = test system: HCC-2998 colon
HCT-116 colon = test system: HCT-116 colon
HCT-15 colon = test system: HCT-15 colon
HL-60(TB) leukemia = test system: HL-60(TB) leukemia
HOP-62 NSCLC = test system: HOP-62 NSCLC
HOP-92 NSCLC = test system: HOP-92 NSCLC
HS 578T breast = test system: HS 578T breast
HT29 colon = test system: HT29 colon
IGROV1 ovarian = test system: IGROV1 ovarian
K-562 leukemia = test system: K-562 leukemia
KM12 colon = test system: KM12 colon
LOX IMVI melanoma = test system: LOX IMVI melanoma
M14 melanoma = test system: M14 melanoma
MALME-3M melanoma = test system: MALME-3M melanoma
MCF7 breast = test system: MCF7 breast
MDA-MB-231 breast = test system: MDA-MB-231 breast
MDA-MB-435 = test system: MDA-MB-435
MDA-N = test system: MDA-N
MOLT-4 leukemia = test system: MOLT-4 leukemia
NCI-H226 lung = test system: NCI-H226 lung
NCI-H23 lung = test system: NCI-H23 lung
NCI-H460 lung = test system: NCI-H460 lung
NCI-H522 lung = test system: NCI-H522 lung
NCI/ADR-RES ovarian = test system: NCI/ADR-RES ovarian
OVCAR-3 ovarian = test system: OVCAR-3 ovarian
OVCAR-4 ovarian = test system: OVCAR-4 ovarian
OVCAR-5 ovarian = test system: OVCAR-5 ovarian
OVCAR-8 ovarian = test system: OVCAR-8 ovarian
PC-3 prostate = test system: PC-3 prostate
RPMI-8226 leukemia = test system: RPMI-8226 leukemia
SF-268 CNS = test system: SF-268 CNS
SF-295 CNS = test system: SF-295 CNS
SK-MEL-2 melanoma = test system: SK-MEL-2 melanoma
SK-MEL-28 melanoma = test system: SK-MEL-28 melanoma
SK-MEL-5 melanoma = test system: SK-MEL-5 melanoma
SK-OV-3 ovarian = test system: SK-OV-3 ovarian
SN12C renal = test system: SN12C renal
SNB-19 CNS = test system: SNB-19 CNS
SNB-75 CNS = test system: SNB-75 CNS
SW-620 colon = test system: SW-620 colon
T-47D breast = test system: T-47D breast
TK-10 renal = test system: TK-10 renal
U251 CNS = test system: U251 CNS
UACC-62 melanoma = test system: UACC-62 melanoma
UO-31 renal = test system: UO-31 renal
CAKI-1 renal = test system: CAKI-1 renal
RXF 393 renal = test system: RXF 393 renal
SF-539 CNS = test system: SF-539 CNS
UACC-257 melanoma = test system: UACC-257 melanoma

## c1cc(-c2ccc(-c3ccc(-c4ccc(-c5cccc6nsnc56)[nH]4)c4nsnc34)[nH]2)c2nsnc2c1
786-0 renal
  TGI: > 100 µM
A549 NSCLC
  TGI: > 100 µM
ACHN renal
  TGI: > 100 µM
BT-549 breast
  TGI: > 100 µM
CCRF-CEM leukemia
  TGI: > 100 µM
COLO 205 colon
  TGI: > 100 µM
DU-145 prostate
  TGI: > 100 µM
EKVX NSCLC
  TGI: > 100 µM
HCC-2998 colon
  TGI: > 100 µM
HCT-116 colon
  TGI: > 100 µM
HCT-15 colon
  TGI: > 100 µM
HL-60(TB) leukemia
  TGI: 30.1 µM
HOP-62 NSCLC
  TGI: > 100 µM
HOP-92 NSCLC
  TGI: > 100 µM
HS 578T breast
  TGI: > 100 µM
HT29 colon
  TGI: > 100 µM
IGROV1 ovarian
  TGI: > 100 µM
K-562 leukemia
  TGI: > 100 µM
KM12 colon
  TGI: > 100 µM
LOX IMVI melanoma
  TGI: > 100 µM
M14 melanoma
  TGI: > 100 µM
MALME-3M melanoma
  TGI: > 100 µM
MCF7 breast
  TGI: > 100 µM
MDA-MB-231 breast
  TGI: > 100 µM
MDA-MB-435
  TGI: > 100 µM
MDA-N
  TGI: > 100 µM
MOLT-4 leukemia
  TGI: > 100 µM
NCI-H226 lung
  TGI: > 100 µM
NCI-H23 lung
  TGI: > 100 µM
NCI-H460 lung
  TGI: > 100 µM
NCI-H522 lung
  TGI: > 100 µM
NCI/ADR-RES ovarian
  TGI: > 100 µM
OVCAR-3 ovarian
  TGI: > 100 µM
OVCAR-4 ovarian
  TGI: > 100 µM
OVCAR-5 ovarian
  TGI: > 100 µM
OVCAR-8 ovarian
  TGI: > 100 µM
PC-3 prostate
  TGI: > 100 µM
RPMI-8226 leukemia
  TGI: > 100 µM
SF-268 CNS
  TGI: > 100 µM
SF-295 CNS
  TGI: > 100 µM
SK-MEL-2 melanoma
  TGI: > 100 µM
SK-MEL-28 melanoma
  TGI: > 100 µM
SK-MEL-5 melanoma
  TGI: > 100 µM
SK-OV-3 ovarian
  TGI: > 100 µM
SN12C renal
  TGI: > 100 µM
SNB-19 CNS
  TGI: > 100 µM
SNB-75 CNS
  TGI: > 100 µM
SW-620 colon
  TGI: > 100 µM
T-47D breast
  TGI: > 100 µM
TK-10 renal
  TGI: > 100 µM
U251 CNS
  TGI: > 100 µM
UACC-62 melanoma
  TGI: > 100 µM
UO-31 renal
  TGI: > 100 µM

## CCN1C(=O)C(=C/C=C/c2ccc(OC)cc2)C(=O)N(CC)C1=S
786-0 renal
  TGI: 32.6 µM
A549 NSCLC
  TGI: > 100 µM
ACHN renal
  TGI: 31.5 µM
BT-549 breast
  TGI: 90.1 µM
CAKI-1 renal
  TGI: 47.2 µM
CCRF-CEM leukemia
  TGI: 75.3 µM
COLO 205 colon
  TGI: 36 µM
DU-145 prostate
  TGI: 34 µM
EKVX NSCLC
  TGI: 78.9 µM
HCC-2998 colon
  TGI: > 100 µM
HCT-116 colon
  TGI: 31.8 µM
HCT-15 colon
  TGI: 36.4 µM
HL-60(TB) leukemia
  TGI: > 100 µM
HOP-62 NSCLC
  TGI: 36.1 µM
HOP-92 NSCLC
  TGI: 28.9 µM
HS 578T breast
  TGI: > 100 µM
HT29 colon
  TGI: 58.9 µM
IGROV1 ovarian
  TGI: 35.7 µM
K-562 leukemia
  TGI: > 100 µM
KM12 colon
  TGI: 40.5 µM
LOX IMVI melanoma
  TGI: 32.6 µM
M14 melanoma
  TGI: 52.5 µM
MALME-3M melanoma
  TGI: 28 µM
MCF7 breast
  TGI: > 100 µM
MDA-MB-231 breast
  TGI: 37.2 µM
MDA-MB-435
  TGI: 43.6 µM
MDA-N
  TGI: 36.6 µM
MOLT-4 leukemia
  TGI: > 100 µM
NCI-H226 lung
  TGI: > 100 µM
NCI-H23 lung
  TGI: > 100 µM
NCI-H460 lung
  TGI: > 100 µM
NCI/ADR-RES ovarian
  TGI: 37.4 µM
OVCAR-3 ovarian
  TGI: 31.2 µM
OVCAR-4 ovarian
  TGI: > 100 µM
OVCAR-5 ovarian
  TGI: > 100 µM
OVCAR-8 ovarian
  TGI: 44.7 µM
PC-3 prostate
  TGI: 37.3 µM
RPMI-8226 leukemia
  TGI: > 100 µM
RXF 393 renal
  TGI: 39.8 µM
SF-268 CNS
  TGI: 88.3 µM
SF-295 CNS
  TGI: > 100 µM
SF-539 CNS
  TGI: 40.4 µM
SK-MEL-2 melanoma
  TGI: > 100 µM
SK-MEL-5 melanoma
  TGI: 71.7 µM
SK-OV-3 ovarian
  TGI: 57.8 µM
SN12C renal
  TGI: 35.4 µM
SNB-19 CNS
  TGI: > 100 µM
SW-620 colon
  TGI: 44 µM
T-47D breast
  TGI: > 100 µM
TK-10 renal
  TGI: 31.8 µM
U251 CNS
  TGI: 36.6 µM
UACC-257 melanoma
  TGI: 30.3 µM
UACC-62 melanoma
  TGI: 31.7 µM
UO-31 renal
  TGI: > 100 µM

## O=C1c2ccccc2C(=Nc2ccc3ccccc3c2)C1(C1=C(c2ccccc2)C(=Nc2ccc3ccccc3c2)c2ccccc21)c1ccccc1 (stereo not drawn)
786-0 renal
  TGI: > 100 µM
A549 NSCLC
  TGI: > 100 µM
ACHN renal
  TGI: 15 µM
BT-549 breast
  TGI: 73.3 µM
CAKI-1 renal
  TGI: > 100 µM
CCRF-CEM leukemia
  TGI: > 100 µM
COLO 205 colon
  TGI: > 100 µM
DU-145 prostate
  TGI: > 100 µM
EKVX NSCLC
  TGI: > 100 µM
HCC-2998 colon
  TGI: > 63.4 µM
HCT-116 colon
  TGI: > 100 µM
HCT-15 colon
  TGI: > 23.8 µM
HL-60(TB) leukemia
  TGI: > 29 µM
HOP-62 NSCLC
  TGI: > 100 µM
HOP-92 NSCLC
  TGI: > 100 µM
HS 578T breast
  TGI: > 100 µM
HT29 colon
  TGI: > 100 µM
IGROV1 ovarian
  TGI: > 100 µM
K-562 leukemia
  TGI: > 43.5 µM
KM12 colon
  TGI: > 42.6 µM
LOX IMVI melanoma
  TGI: > 100 µM
M14 melanoma
  TGI: > 86.8 µM
MCF7 breast
  TGI: > 65.6 µM
MDA-MB-231 breast
  TGI: > 100 µM
MDA-MB-435
  TGI: > 87.3 µM
MDA-N
  TGI: > 59.1 µM
MOLT-4 leukemia
  TGI: 7.81 µM
NCI-H226 lung
  TGI: > 44.4 µM
NCI-H23 lung
  TGI: > 31.3 µM
NCI-H460 lung
  TGI: > 100 µM
NCI-H522 lung
  TGI: > 100 µM
NCI/ADR-RES ovarian
  TGI: > 100 µM
OVCAR-3 ovarian
  TGI: > 100 µM
OVCAR-4 ovarian
  TGI: > 100 µM
OVCAR-5 ovarian
  TGI: > 100 µM
OVCAR-8 ovarian
  TGI: > 94.1 µM
PC-3 prostate
  TGI: > 100 µM
RPMI-8226 leukemia
  TGI: 18.2 µM
RXF 393 renal
  TGI: > 100 µM
SF-268 CNS
  TGI: > 100 µM
SF-295 CNS
  TGI: > 100 µM
SF-539 CNS
  TGI: > 100 µM
SK-MEL-2 melanoma
  TGI: > 69.5 µM
SK-MEL-28 melanoma
  TGI: > 100 µM
SK-MEL-5 melanoma
  TGI: 7.47 µM
SK-OV-3 ovarian
  TGI: > 100 µM
SN12C renal
  TGI: > 100 µM
SNB-19 CNS
  TGI: > 100 µM
SNB-75 CNS
  TGI: > 70.4 µM
SW-620 colon
  TGI: > 100 µM
T-47D breast
  TGI: > 100 µM
TK-10 renal
  TGI: > 100 µM
U251 CNS
  TGI: > 100 µM
UACC-257 melanoma
  TGI: > 100 µM
UACC-62 melanoma
  TGI: > 53.5 µM
UO-31 renal
  TGI: 37 µM
